Legend:
healthy elderly subjects [1] = test: Cogstate Identification test (choice reaction time, visual attention); assay type: in vivo, human
Method: (§1) The test was aimed at assessing if, and to what extent, Xanamem™ 20 mg a day may improve performance in healthy elderly subjects from Baseline (Week 0) to Weeks 2, 4, 6, 8, 10, 12 (End of Treatment) and 16 (Follow-up), as measured by changes in the Cogstate Test Battery. 42 subjects were randomised in which 30 subjects received 20 mg Xanamem™ once a day and 12 subjects received matching placebo once a day.
(§2) For each visit, excluding the Screening visit and safety visits (Week 6 and Week 10), subjects arrived at the study site having fasted for at least 10 hours. The subjects took Xanamem™ at site after all the pre-dose blood samples had been taken. Xanamem™ was taken 30 minutes after the start of a meal. On non-study visit days, the subjects took Xanamem™ at the same time each morning with food (30 minutes after the start of the meal).
(§3) One capsule of Xanamem™, or the matching placebo, was administered orally with approximately 200 mL of warm water once a day and with food in the morning, to the subjects from Baseline (Week 0) to End of Treatment (Week 12) for a total of 12 weeks. […]
In this test an event (a card turning face up) occurred in the centre of the computer screen and the subject decided “YES” or “NO” as to whether this event met a predefined and unchanging criterion (i.e. is the color of the card red?). The software measured the speed and accuracy of each response.

[2] = Plasma concentrations and pharmacokinetics; assay type: in vivo, human
Method: as §1, §2
(§4) One capsule of Xanamem™, or the matching placebo, was administered orally with approximately 200 mL of warm water once a day and with food in the morning, to the subjects from Baseline (Week 0) to End of Treatment (Week 12) for a total of 12 weeks.
The mean Xanamem™ plasma concentration at 3-5 hours after the first dose of the study was 169 ng/mL. […] The mean trough concentration at Weeks 2, 4, and 8, was 89, 73, and 78 ng/mL, and the mean 3 to 5 hour concentration was 353. 331, and 330 ng/mL for weeks 2, 4, and 8, respectively.
Only body weight was identified as a covariate impacting PK in this model, confirming that the PK of Xanamem™ are consistent between healthy volunteers, patients with Alzheimer's Disease, and healthy elderly subjects.

healthy elderly subjects [3] = test: Continuous Paired Associate Learning-Delayed test; assay type: in vivo, human; details: 20 mg once a day orally, 12 weeks, compared to placebo group
Method: as §1, §2, §3
(§5) Finding the correct location for all patterns in the set was defined as a learning trial. […] The software recorded each move as an error or as a correct move.

healthy elderly subjects [4] = test: Cogstate Test Battery overall: impairment of cognition; assay type: in vivo, human; details: 20 mg compared to placebo over 12 weeks
Method: as §1
(§6) To assess the efficacy of Xanamem™ 20 mg once a day in improving cognitive ability in the subjects, the Cogstate Test Battery of the subjects were checked at Baseline (Week 0), Weeks 2, 4, and 8, Week 12 (End of Treatment) and Week 16 (Follow-up).
The Cogstate Test Battery included the following tests: detection test, identification test, one card learning test, one back working memory test, and the continuous paired associate learning test (CPAL; paired associate learning).

healthy elderly subjects [5] = test: Cogstate One Back working memory test; assay type: in vivo, human
Method: as §1, §2, §3
The Cogstate One Back memory test is a valid measure of working memory. […] The software measured the speed and accuracy of each response.

healthy elderly subjects [6] = test: Continuous Paired Associate Learning test (CPAL); assay type: in vivo, human
Method: as §1, §2, §4, §6
The Continuous Paired Associate Learning test is a measure of visual associate memory and uses a well-validated paired associate learning paradigm in which the subject must learn the locations of a number of amoeba-like shapes on the computer screen.
Beneath all but two of the blue spheres were amoeboid shapes, one of which matched the central display; the two remaining circles were distractors. In the exposure phase of the test all of the to-be-remembered pattern-location associations were presented on the computer screen simultaneously.
After a five second delay, a pattern was shown in the central location and this signals that the subject should touch the location in the periphery that contained the same pattern. This process continued until the participant had acknowledged all of the pattern-location associations. The learning phase began with the same test display presented during the exposure phase except that now all of the peripheral locations were shown as blue spheres. One of the patterns presented in the exposure phase was presented in the centre location. With the presentation of this pattern, the subject was required to select the peripheral location where an identical pattern was hidden beneath the blue sphere. […]
as §5

healthy elderly subjects [7] = test: Cogstate Detection test (simple reaction time, psychomotor function); assay type: in vivo, human
Method: as §1, §2, §3
For this test, the subject pressed a “YES” response key as soon as they detected an event (a card turning face up presented in the centre of the computer screen). The software measured the response time to detect each event.

healthy elderly subjects [8] = test: One Card Learning test (visual recognition learning); assay type: in vivo, human
Method: as §1, §2, §4
To assess the efficacy of Xanamem™ 20 mg once a day in improving cognitive ability in the subjects, the Cogstate Test Battery of the subjects were checked at Baseline (Week 0), Weeks 2, 4, and 8, Week 12 (End of Treatment) and Week 16 (Follow-up). […]

[9] = CSF and corresponding plasma concentrations at the EOT visit; assay type: in vivo; details: human, oral, 20 mg, four CSF samples at the EOT visit, read-out: ratio of CSF to plasma concentrations
Method: The ratio of Xanamem™ CSF to plasma concentrations in the four CSF samples taken at the EOT visit ranged from 0.028 to 0.421; the range of CSF concentrations was 3.48 to 6.25 ng/mL, compared to 11.6 to 126 ng/mL for the corresponding plasma concentrations.

[10] = 20 mg once a day orally, 12 weeks, compared to placebo group
[11] = 12 weeks treatment, 20 mg versus placebo, statistically significant

O=C(c1csc(-c2cn[nH]c2)c1)N1[C@@H]2CC[C@H]1C[C@](O)(c1ncccn1)C2 [Xanamem™, (5-(1H-Pyrazol-4-yl)thiophen-3-yl)(3-hydroxy-3-(pyrimidin-2-yl)-8-azabicyclo[3.2.1]octan-8-yl)methanone]
visual attention (speed of performance, log10 transformed reaction times for correct responses) (healthy elderly subjects [1]; [10]): improved visual attention | effect size, speed of performance on Identification test (attention) (healthy elderly subjects [1]; [11]): > 0.6 | mean 3 to 5 hour plasma concentration ([2]; Week 2, 20 mg once a day): 353 ng/mL | mean trough plasma concentration ([2]; Week 2, 20 mg once a day): 89 ng/mL | mean 3 to 5 hour plasma concentration ([2]; Week 4, 20 mg once a day): 331 ng/mL | mean trough plasma concentration ([2]; Week 4, 20 mg once a day): 73 ng/mL | mean 3 to 5 hour plasma concentration ([2]; Week 8, 20 mg once a day): 330 ng/mL | mean trough plasma concentration ([2]; Week 8, 20 mg once a day): 78 ng/mL | mean plasma concentration at 3-5 hours ([2]; after the first dose, 20 mg oral with food): 169 ng/mL | pharmacokinetic model ([2]; only body weight identified as covariate): one-compartment model with first-order absorption and elimination | steady state of plasma concentrations ([2]; trough and 3-5 hour concentrations consistent across Weeks 2, 4 and 8): steady state had been achieved by Week 2 | Hippocampal dependent learning and memory (number of errors remembering the associations after a delay) (healthy elderly subjects [3]): improved Hippocampal dependent learning and memory | impairment of cognition associated with treatment (healthy elderly subjects [4]): no systemic evidence of impairment in any respect of cognition | working memory (speed of performance, log10 transformed reaction times for correct responses) (healthy elderly subjects [5]; [10]): improved working memory | effect size, speed of performance on One-back test (working memory) (healthy elderly subjects [5]; [11]): > 0.6 | Hippocampal dependent learning and memory (number of errors remembering the associations) (healthy elderly subjects [6]; [10]): improved Hippocampal dependent learning and memory | differences on Continuous Paired Associates Learning Test outcomes (healthy elderly subjects [6]; 20 mg versus placebo): statistically significant differences in data were in favour of Xanamem™ 20 mg | effect size difference on Continuous Paired Associates Learning Test, sensitivity analysis (healthy elderly subjects [6]; 20 mg versus placebo, Week 4): favoured Xanamem™ 20 mg | effect size (ES) data for Continuous Paired Associates outcomes (healthy elderly subjects [6]; 20 mg versus placebo, overall): tended to favour Xanamem™ 20 mg | psychomotor function (speed of performance, log10 transformed reaction times for correct responses) (healthy elderly subjects [7]; [10]): improved psychomotor function | effect on Detection test (psychomotor speed) (healthy elderly subjects [7]; 20 mg versus placebo, by time point): evident at week 8 | visual learning (accuracy of performance, arcsine transformation of proportion of correct responses) (healthy elderly subjects [8]; 20 mg once a day orally, week 8, compared to placebo group): improved visual learning | effect size (ES) data for One Card Learning outcomes (healthy elderly subjects [8]; 20 mg versus placebo, overall): tended to favour Xanamem™ 20 mg | Kp [9]: 0.028 to 0.421

From US20230000843A1, “MEDICINAL COGNITIVE TREATMENTS” (ACTINOGEN MEDICAL LIMITED, priority 2019, published 2023)
